Earlier results as cited in patent publication US20160244831A9, “Genetic Alterations Associated with Autism and the Autistic Phenotype and Methods of Use Thereof for the Diagnosis and Treatment of Autism” (The Children's Hospital of Philadelphia, priority 2011, published 2016).

Columns and labels:
[1] = at levels that are highly teratogenic in humans
[2] = individuals exposed between days 24-28 post-fertilization

| Structure (SMILES) | expression of RANBP1 mRNA (RANBP1 mRNA) | teratogenicity in animals [1] | rate of ASD [2] [%] |
| --- | --- | --- | --- |
| O=C1CCC(N2C(=O)c3ccccc3C2=O)C(=O)N1 (stereo not shown) [Thalidomide] | decreased expression | lack of teratogenicity | 27 |
| CCCC(CCC)C(=O)O [Valproate, Valproic acid] | decreased expression |  |  |
